Measurements from US9447028B2, “Therapeutic aryl-amido-aryl compounds and their use” (King's College London, priority 2009, dated 2016).

Columns and labels:
cortical neurons = experiment: Survival of cortical neurons in the presence of 10 μM Aβ42; type: cell-based, mouse; settings: for % Surviving Neurons: 10 μM Aβ42, 3 days; for Neuronal survival in the presence of Aβ42 (in words): 10 μM Aβ42, 0.01-1 μM agonist, compared to control cultures treated only with Aβ42
Description: (§1) Neuronal cultures were prepared from embryonic E19 mouse embryos. Fetal brain cortices were dissected and freed from meninges. […] Cortical cells (1×10^5) were plated onto poly-L-lysine (10 μg/mL) coated glass coverslips in 24-well tissue culture plates. They were cultured in Neurobasal medium containing B27 supplement, 2 mM glutamine, 20 μg/mL penicillin stepromycin, and 0.25% glucose. They were maintained for 7 days before been treated. For each treatment, 3 coverslips were used and the experiment was repeated 3 times.
After 3 days of culture, media was removed and Hoechst 33342 (10 μM) and propidium iodide (10 μM) in PBS was added to the wells for 15 minutes. Only neurons positive for Hoechst 33342 but negative for propidium iodide were counted as surviving neurons. In addition, cortical cultures were treated with agonist alone (0.1 μM) and assayed for chAT, APP, and ADAM10. The antibodies used were α chAT (1:200, Chemicon™), α APP (1:100, Chemicon™) and α ADAM10 (1:200, Chemicon™). Secondary antibody used was anti-rabbit Cy3 or Cy5 conjugated (Jackson™, used at 1:1000). The nuclear marker DAPI (1 μg/mL) was used to stain all cells.
Cortical cultures were treated after 7 days with 10 μM Aβ42 and supplemented with 0.01-1 μM of agonist. After 3 days, the number of surviving cells was determined. […] As atRA is a weak pan-agonist of all the RARs, it was decided to identify the specific receptor involved in this process using RAR specific agonists.

[1] = tested on: disintegrin-metalloproteinases 10 (ADAM10); experiment: ADAM10 expression in cultured cortical neurons; type: cell-based, mouse; design: dose or concentration left out as unconfirmed; settings: Agonist; analysed 3 days later (Table 5, introduced as ADAM10 data)
Description: as §1
(§2) After 3 days of culture, media was removed and Hoechst 33342 (10 μM) and propidium iodide (10 μM) in PBS was added to the wells for 15 minutes. Only neurons positive for Hoechst 33342 but negative for propidium iodide were counted as surviving neurons. […] The antibodies used were α chAT (1:200, Chemicon™), α APP (1:100, Chemicon™) and α ADAM10 (1:200, Chemicon™). Secondary antibody used was anti-rabbit Cy3 or Cy5 conjugated (Jackson™, used at 1:1000). The nuclear marker DAPI (1 μg/mL) was used to stain all cells. […]

[2] = tested on: choline acetyltransferase (chAT); experiment: chAT expression in cultured cortical neurons; type: cell-based, mouse; design: dose or concentration left out as unconfirmed; settings: Agonist; analysed 3 days later
Description: as §1, §2

[3] = tested on: amyloid precursor protein (APP); experiment: APP expression in cultured cortical neurons; type: cell-based, mouse; design: dose or concentration left out as unconfirmed; settings: Agonist; analysed 3 days later (Table 4)
Description: as §1, §2

Aβ40 = Aβ40 level in cortex of Tg2576 mice after oral agonist (sandwich ELISA); type: in vivo; settings: chow with 1 mg/kg agonist for 3 months, six months of age; control = 100
Description: (§3) Twenty seven 3 month old Tg2576 mice (Taconic™) were split into 3 groups of 9. One group was fed normal chow, the other groups were fed with 1 mg/Kg RARα agonist, either AM580 or BMS194753. Animals were analysed at 6 and 9 months of age.
(§4) Animals were perfused with PBS. The brain was dissected and one hemisegment was fixed in 4% PFA overnight, 20% sucrose for 3 days, embedded in OCT compound and stored frozen. The cortex was removed form the other hemisegment and the protein extracted.
(§5) To measure Aβ40 and Aβ42 levels, a sandwich ELISA assay kit (Biosource™) was used according to the manufactures instructions. A 1:5000 of the guanidine-soluble extracts were made with TBS containing 5% BSA and 1×protease inhibitor (Calbiochem™) and centrifuged at 16000×g for 20 minutes at 4° C. Samples were diluted 1:10000 in sample diluent provided by the manufacturer.
(§6) These are Tg2576 mice, which over-express the Swedish mutation of APP. These mice overproduce Aβ40 and Aβ42. Three month old mice were fed for 3 months with normal chow or chow supplemented with 1 mg/kg of agonist. At six months of age, there is a dramatic decrease in both Aβ40 and Aβ42 levels in the mice fed with the RARα agonist, as compared to the normal fed mice.

Aβ42 = Aβ42 level in cortex of Tg2576 mice after oral agonist (sandwich ELISA); type: in vivo; settings: chow with 1 mg/kg agonist for 3 months, six months of age; control = 100
Description: as §3, §4, §5, §6

RARα = biological target: T1, RARα (Homo sapiens, UniProt P10276); experiment: Transactivation assay for RAR alpha (gal4-RAR fusion, luciferase reporter, COS-7 cells); type: cell-based; settings: for RARα/RARβ ratio (*): fold-selectivity for RARα over RARβ; for RARα activity ratio: ratio of test compound EC50 to that of atRA on the same plate
T1 construct: gal4 (fusion partner); expressed in transfected cells; host or cells: COS-7
T1 sequence (P10276 183-417 limits assumed): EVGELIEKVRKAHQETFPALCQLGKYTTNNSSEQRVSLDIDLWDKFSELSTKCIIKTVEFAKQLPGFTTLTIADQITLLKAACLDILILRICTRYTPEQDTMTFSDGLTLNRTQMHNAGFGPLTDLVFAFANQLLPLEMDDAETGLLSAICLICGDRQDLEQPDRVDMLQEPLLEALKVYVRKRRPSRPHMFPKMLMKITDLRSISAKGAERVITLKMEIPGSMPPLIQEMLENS
In short: (§7)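 COS-7 cells co-transfected with gal4–RAR ligand-binding-domain fusion and pFR-luc reporter, then treated with compound in phenol-red-free DMEM (1% DMSO) for about one day. Luciferase read after lysis with BrightGlo; EC50 values from replicate experiments given as a ratio of means.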

RARγ = biological target: T2, RARγ (Homo sapiens, UniProt P13631); experiment: Transactivation assay for RAR gamma (gal4-RAR fusion, luciferase reporter, COS-7 cells); type: cell-based; settings: ratio of test compound EC50 to that of atRA; inactive = no agonist action at the highest concentration tested
T2 construct: gal4 (fusion partner); expressed in transfected cells; host or cells: COS-7
T2 sequence (P13631 185-419 limits assumed): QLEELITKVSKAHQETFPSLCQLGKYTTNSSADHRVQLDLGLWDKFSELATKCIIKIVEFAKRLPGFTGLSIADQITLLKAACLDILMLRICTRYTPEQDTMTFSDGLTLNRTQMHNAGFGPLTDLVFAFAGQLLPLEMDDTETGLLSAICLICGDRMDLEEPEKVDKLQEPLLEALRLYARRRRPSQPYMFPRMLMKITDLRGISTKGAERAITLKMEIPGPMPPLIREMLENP
In short: as §7

RARβ = biological target: T3, RARβ (Homo sapiens, UniProt P10826); experiment: Transactivation assay for RAR beta (gal4-RAR fusion, luciferase reporter, COS-7 cells); type: cell-based; settings: ratio of test compound EC50 to that of atRA; inactive = no agonist action at the highest concentration tested
T3 construct: gal4 (fusion partner); expressed in transfected cells; host or cells: COS-7
T3 sequence (P10826 183-417 limits assumed): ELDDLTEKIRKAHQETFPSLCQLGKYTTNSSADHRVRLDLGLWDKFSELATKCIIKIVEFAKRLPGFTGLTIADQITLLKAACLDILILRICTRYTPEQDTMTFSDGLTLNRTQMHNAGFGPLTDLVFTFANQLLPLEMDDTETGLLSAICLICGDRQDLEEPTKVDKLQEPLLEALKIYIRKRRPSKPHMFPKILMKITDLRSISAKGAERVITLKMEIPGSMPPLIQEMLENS
In short: as §7

| SMILES | % Surviving Neurons (cortical neurons; 0.01 μM agonist) | % Surviving Neurons (cortical neurons; 0.1 μM agonist) | % Surviving Neurons (cortical neurons; 1.0 μM agonist) | Neuronal survival in the presence of Aβ42 (in words) (cortical neurons) | Number of APP Neurons [1] | Number of chAT Neurons [2] | Number of APP Neurons [3] | % of Aβ40 (Aβ40) | % of Aβ42 (Aβ42) | RARα/RARβ ratio (*) (RARα) | RARα activity ratio (RARα) | RARγ activity ratio (RARγ) | RARβ activity ratio (RARβ) |
| --- | --- | --- | --- | --- | --- | --- | --- | --- | --- | --- | --- | --- | --- |
| O=C(O)c1ccc2cc(-c3ccc(O)c(C45CC6CC(CC(C6)C4)C5)c3)ccc2c1 [CD 437] | 53 ± 3% | 30 ± 11% | 26 ± 10% | notably worse | 2 ± 0.75 | 2 ± 1 | 22 ± 3 | – | – | – | – | – | – |
| CC1(C)CCC(C)(C)c2cc(C(=O)Nc3ccc(C(=O)O)cc3)ccc21 [AM 580] | 52 ± 7% | 70 ± 6% | 99 ± 9% | notably better | 19 ± 3 | – | 11 ± 2 | 4 ± 1% | 8 ± 1% | – | – | – | – |
| COc1ccc(-c2ccc3cc(C(=O)O)ccc3c2)cc1C1(C)CCCCC1 [CD 2019] | 52 ± 3% | 58 ± 5% | 60 ± 5% | notably worse | 1 ± 0.5 | 8 ± 1 | 23 ± 2 | – | – | – | – | – | – |
| CC1=C(/C=C/C(C)=C/C=C/C(C)=C/C(=O)O)C(C)(C)CCC1 [atRA, all trans retinoic acid] | 53 ± 4% | 69 ± 4% | 82 ± 4% | increase in cell survival with increasing dose | 11 ± 1.5 | 16 ± 2 | 15 ± 2 | – | – | 1 | 1 | 1 | 1 |
| CC1(C)C(=O)C(C)(C)c2cc(C(=O)Nc3ccc(C(=O)O)cc3)ccc21 [BMS 194753] | 57 ± 7% | 69 ± 3% | 88 ± 4% | notably better | 20 ± 2 | 37 ± 3 | 10 ± 2 | 3 ± 0.5% | 7 ± 1% | – | – | – | – |
| CCOc1c(OC(C)C)cc(C(=O)Nc2ccc(C(=O)O)c(F)c2)cc1OC(C)C [AAA-064, 4-(3,5-Diisopropoxy-4-ethoxybenzamido)-2-fluorobenzoic acid] | – | – | – | – | – | – | – | – | – | >40 | 81 | 1977 | >3500 |
| CCOc1c(Cl)cc(C(=O)Nc2ccc(C(=O)O)c(O)c2)cc1Cl [AAA-057, 4-(3,5-Dichloro-4-ethoxybenzamido)-2-hydroxybenzoic acid] | – | – | – | – | – | – | – | – | – | 37 | 33 | 4920 | 1226 |
| CCOc1cc(C(=O)Nc2ccc(C(=O)O)cc2)cc(OCC)c1Br [AAA-106, 4-(4-Bromo-3,5-diethoxybenzamido)benzoic acid] | – | – | – | – | – | – | – | – | – | 34 | 66 | 2326 | 2245 |
